Assay [1] has as its system HeLa. Briefly: Compound was evaluated for toxicity against HeLa S3 cells. As to conditions: Homo sapiens. The class given is functional, cell-based.
Assay [2] concerns GH3. Kind of assay: Compound was evaluated for toxicity against GH3 cells. The format is functional, cell-based. As to conditions: Rattus norvegicus.

`C[C@]12CC[C@@H]3c4ccc(O)cc4CC[C@H]3[C@@H]1CC[C@@]2(O)[C@H]1CO1`: the results for the IC50 in assay [1] and in assay [2] were 6.5 µM and 5.5 µM, respectively.
`C[C@]12CC[C@@H]3c4ccc(OC(=O)N(CCCl)CCCl)cc4CC[C@H]3[C@@H]1CC[C@@H]2O` [ESTRAMUSTINE] had a half-inhibitory concentration (IC50) in assay [1] of 3.4 µM.
Regarding `C=C[C@@]12COC(=O)C(=C)[C@@H]1[C@H]1OC(=O)C(=C)[C@@H]1[C@@H](O)C2` [VERNOLEPIN], the IC50 in assay [1] was determined as 3.5 µM; in assay [2] it was 5.2 µM.
The matching figures for `C[C@]12CC[C@@H]3c4ccc(O)cc4CC[C@H]3[C@@H]1CC[C@@]2(O)[C@@H]1CO1`: 18.6 µM and 17.7 µM.

For orientation: IC50 means the concentration that inhibits the measured activity by half.

Values taken from ChEMBL document CHEMBL1123353, “3,17 beta-Dihydroxy-20,21-epoxy-19-norpregna-1,3,5(10)-trienes: synthesis, rearrangement, cytotoxicity, and estrogen-receptor binding” (J Med Chem, 1986).
